Source: the supplement of paper PMC11616607

Assays:
Experiment in all cases: drug sensitivity score (DSS) from 5-point dose-response viability curve (DSS (area-under-curve based score)); higher = more sensitive (stronger growth inhibition or killing); extreme values may be limits of the assay
Settings in all cases: exposure time: 72 h; concentration range: 5 concentrations over 10,000-fold range
[1] = tested on: CAOV3
Method in brief: (§1)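 Drugs in DMSO or water were acoustically dispensed (Echo 550) into 384-well plates at five concentrations across a 10,000-fold range. Ovarian cancer and normal ovarian cells (1,500 per well) were then added, incubated for 3 days at 37°C with 5% CO2, and read for viability by CellTiter-Glo luminescence on a PHERAstar FS. From these readings, Breeze software derived a drug sensitivity score per cell line and drug, with higher values meaning more sensitive and zero meaning no response.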

[2] = tested on: JHOS2
Method in brief: as §1

[3] = tested on: HOSE1C
Method in brief: as §1

[4] = tested on: OVCAR5
Method in brief: as §1

[5] = tested on: OVCAR8
Method in brief: as §1

[6] = tested on: OV90
Method in brief: as §1

[7] = tested on: COV318
Method in brief: as §1

[8] = tested on: OVCAR4
Method in brief: as §1

[9] = tested on: HOSE2C
Method in brief: as §1

[10] = tested on: COV362
Method in brief: as §1

[11] = tested on: Ovsaho
Method in brief: as §1

[12] = tested on: Kuramochi
Method in brief: as §1

SMILES	drug sensitivity score [1]	drug sensitivity score [2]	drug sensitivity score [3]	drug sensitivity score [4]	drug sensitivity score [5]	drug sensitivity score [6]	drug sensitivity score [7]	drug sensitivity score [8]	drug sensitivity score [9]	drug sensitivity score [10]	drug sensitivity score [11]	drug sensitivity score [12]
CCC(C)(C)C(=O)O[C@H]1C[C@@H](C)C=C2C=C[C@H](C)[C@H](CC[C@@H]3C[C@@H](O)CC(=O)O3)[C@H]21 [Simvastatin]	0.1	0.2	8.7	0	2.9	1.5	0	0.7	8.8	0.4	3.5	1.3
CO[C@H]1C[C@@H]2CC[C@@H](C)[C@@](O)(O2)C(=O)C(=O)N2CCCC[C@H]2C(=O)O[C@H]([C@H](C)C[C@@H]2CC[C@@H](O)[C@H](OC)C2)CC(=O)[C@H](C)/C=C(\C)[C@@H](O)[C@@H](OC)C(=O)[C@H](C)C[C@H](C)/C=C/C=C/C=C/1C [Sirolimus]	3.9	3.6	4.8	4.3	4	7.7	1.2	1.9	0	0	4.4	3.8
COCCNCc1ccc(-c2cc3nccc(Oc4ccc(NC(=O)C5(C(=O)Nc6ccc(F)cc6)CC5)cc4F)c3s2)nc1 [Sitravatinib]	1.9	1.2	2.6	4.5	0.5	1.6	0.5	0.7	3.3	2.3	0	2.5
Cc1c(C(=O)Nc2ccc(N3C[C@@H](C)O[C@@H](C)C3)nc2)cccc1-c1ccc(OC(F)(F)F)cc1 [Sonidegib]	0	2.2	1.6	1.2	3.3	1.3	2.6	0.2	1.8	0	2.5	4.7
C=CCN(/C=C1/C(=O)O[C@H](COC)[C@@]2(C)C1=C(O)C(=O)C1=C2[C@H](OC(C)=O)C[C@]2(C)C(=O)CC[C@@H]12)CC=C [Sonolisib]	0	0	0	0	0	0	0	0	0.6	0	0	0
CNC(=O)c1cc(Oc2ccc(NC(=O)Nc3ccc(Cl)c(C(F)(F)F)c3)cc2)ccn1 [Sorafenib]	0	0	0	0	0	0	0	0	0	0	0	0
CN1CCN(c2nc(C3=C(c4c[nH]c5ccccc45)C(=O)NC3=O)c3ccccc3n2)CC1 [Sotrastaurin]	1.2	0.2	0	0	0.1	0	0	0	0	1.5	0	0
C=CC(=O)Nc1cccc(Nc2nc(Nc3ccc(OCCOC)cc3)ncc2F)c1 [Spebrutinib]	0.3	1.9	0	1.2	0	1.3	2	2	0.4	0.9	2.2	1.6
CC(C)n1cnc2c(NCCc3ccc(O)cc3)nc(-c3csc4ccccc34)nc21 [StemRegenin 1]	0	1	3.8	4.2	1.6	1.2	1.1	1.1	2.2	2	1.8	1.3
CCN(CC)CCNC(=O)c1c(C)[nH]c(/C=C2\C(=O)Nc3ccc(F)cc32)c1C [Sunitinib]	0	0.1	0	0	0	0	0	0	0	0	0	0
CC(C)(O)CC(=O)NCCn1ccc2ncnc(Nc3ccc(Oc4cccc(C(F)(F)F)c4)c(Cl)c3)c21 [TAK-285]	2.5	0	0	2	0.1	0	0	0	0	0.2	0.2	0.9
CCS(=O)(=O)c1cccc(-c2cc(C(=O)NC3CCN(C)CC3)c(C)c3[nH]c4ncc(C)cc4c23)c1 [TAK-901]	16.9	1.2	3.5	4.7	2.8	4.6	1.4	5.8	7.4	1.1	7.5	6.8
Cc1cccc(-c2[nH]c(CNc3ccccc3F)nc2-c2ccc3ncnn3c2)n1 [TEW-7197]	0	0	0	1.3	0.1	0	0	0	0.9	5	0	0
Nc1nc(N)c2nc(-c3cccc(O)c3)c(-c3cccc(O)c3)nc2n1 [TG100-115]	0.3	0	0	0.4	0	0	0	2.3	0	0.9	0	1.2
Cc1cc(C(C)Nc2ccccc2)c2nc(N3CCOCC3)cc(=O)n2c1 (stereo not drawn) [TGX-221]	0.8	0	0	2.1	1.2	0.2	0	1.7	0	0.3	7.8	7.9
Nc1nc(NC2CC2)cc(-c2cccc(Cl)c2Cl)n1 [TH588]	1.9	0	0	1.9	2.4	0	0.9	1.8	0	0.4	3.7	1.6
Clc1ccccc1C(c1ccccc1)(c1ccccc1)n1cccn1 [TRAM-34]	0	0	0	5	0	0	0	0	0	0	0	0
CC(=O)Nc1ccc(C(=O)Nc2ccccc2N)cc1 [Tacedinaline]	0	0	0.6	3.4	0	1.1	0	0.1	0.7	0	0	1.7
C=CC[C@@H]1/C=C(\C)C[C@H](C)C[C@H](OC)[C@H]2O[C@@](O)(C(=O)C(=O)N3CCCC[C@H]3C(=O)O[C@H](/C(C)=C/[C@@H]3CC[C@@H](O)[C@H](OC)C3)[C@H](C)[C@@H](O)CC1=O)[C@H](C)C[C@@H]2OC [Tacrolimus]	0.5	1.8	0.3	0.5	3.4	0	0	0.3	0	0.1	0.7	1
CN(C(=O)c1ccc(F)cc1C(F)(F)F)C1CCN(c2nnc(-c3ccnn3C)c3ccccc23)CC1 [Taladegib]	0	0	0	0.2	0	0	0.1	0	0	0	0	0
Cn1ncnc1[C@H]1c2n[nH]c(=O)c3cc(F)cc(c23)N[C@@H]1c1ccc(F)cc1 [Talazoparib]	4.1	3	10.1	3.2	5.7	5.1	3.1	1.9	8.7	0	4	4.3
C[C@@H]1CN(Cc2ccc(F)cc2)[C@@H](C)CN1C(=O)c1cc2c(C(=O)C(=O)N(C)C)cn(C)c2cc1Cl [Talmapimod]	0	0	0	0	0	0	0	0	0	0	0	0
COc1cc(Nc2ncc(F)c(Nc3ccc4c(n3)NC(=O)C(C)(C)O4)n2)cc(OC)c1OC [Tamatinib]	0	0	0	4.5	0	0	0.3	0	6.2	0	3.8	1.5
CC/C(=C(\c1ccccc1)c1ccc(OCCN(C)C)cc1)c1ccccc1 [Tamoxifen]	0.6	1	7.9	3.9	0.8	3.7	0.6	0.2	1.3	0.8	2.9	2.2
COc1cc2c(N3CCN(C(=O)Nc4ccc(OC(C)C)cc4)CC3)ncnc2cc1OCCCN1CCCCC1 [Tandutinib]	0	0	0	0	0	0	0	0	0	0	0	0
O[C@H]1CC[C@H](Nc2ncc3nc(Nc4c(F)cc(F)cc4F)n([C@H]4CCOC4)c3n2)CC1 [Tanzisertib]	0	0	0	1.9	0	0	0	0	0	0	0.4	0.8
C[C@@H](C(=O)O)c1ccc(-c2ccccc2)c(F)c1 [Tarenflurbil]	0	0.7	0	0.3	0	1.3	0.3	0	0	0	0	0
Cc1nc(-c2cn3c(n2)-c2ccc(-c4cnn(C(C)(C)C(N)=O)c4)cc2OCC3)n(C(C)C)n1 [Taselisib]	7.5	3.3	4.5	7.9	2.1	0.3	2.5	2.1	7.8	1.9	3.1	4.1
COc1cccc2c1c(O)c(C(=O)N(C)c1ccc(C(F)(F)F)cc1)c(=O)n2C [Tasquinimod]	0	0.6	0	0	0	0	0	1.9	0	0	2	0.2
